Tests used:
[1] = in vivo; cited from earlier work
[2] = tested on: auditory outer and inner hair cells; test: Autophagy in cochlear hair cells, immunohistochemistry with LC3 antibodies; assay type: in vivo; conditions: GM treatment, rat cochleae
Experimental: A total of 24 rats were classified into one group of 12 rats treated with 50 pM of rapamycin (RRM) and another group of 12 rats treated with 100 pM of RPM. […] To allow RPM to be well absorbed inside the tympanum, the rats were placed in a lateral decubitus position and stabilized. Meanwhile, rats of which right ears were treated with physiological saline were classified as a control group.
To observe autophagy in the auditory outer hair cells, the cochleae of the rats of Example 1 were subjected to immunohistochemistry using microtubule-associated LC3 (Microtubule-associated protein 1A/1B-light chain 3) antibodies.

[3] = tested on: HEI-OC1 cells; test: Autophagy in auditory cell line (LC3 staining, western blot, real-time quantitative PCR); assay type: cell-based; conditions: HEI-OC1 cells treated with GM
Experimental: (§1) An auditory cell line, e.g., House-Ear Institute-organ of Corti 1 (HEI-OC1), that expresses auditory genes was used. HEI-OC1 cells were cultured under conditions of a temperature of 33° C. and a CO2 (10%) by adding 10% fetal bovine serum (FBS) and 25 U/ml interferon-gamma to a Dulbecco's modified Eagle's Medium (DMEM) including high concentrations of glutamine. At about 90% confluence of the cultured cells on a bottom surface of a plate, the cell density was maintained within an appropriate range by performing serial subcultures using 2.5% Trypsin-EDTA.
To observe autophagy in the GM-treated auditory cells, the HEI-OC1 cells, which are the auditory cell line of Example 1-2, were subjected to immunohistochemistry using LC3 antibody, thereby staining autophagosomes, the expression of autophagy-related proteins, e.g., LC3, Beclin-1, and RAS-related GTP-binding proteins (Rab7) was confirmed according to the western blot, and the processes of autophagy were analyzed through real-time quantitative PCR.

[4] = tested on: HEI-OC1 cells; test: RPM effects on apoptosis, MTS assay; assay type: cell-based
Experimental: as §1
Here, RPM was used as an inducer of autophagy and chloroquine (CQ) was used as an inhibitor of autophagy in terms of pretreatment and combination treatment.

Compound: CO[C@H]1C[C@@H]2CC[C@@H](C)[C@@](O)(O2)C(=O)C(=O)N2CCCC[C@H]2C(=O)O[C@H]([C@H](C)C[C@@H]2CC[C@@H](O)[C@H](OC)C2)CC(=O)[C@H](C)/C=C(\C)[C@@H](O)[C@@H](OC)C(=O)[C@H](C)C[C@H](C)/C=C/C=C/C=C/1C [RPM, rapamycin]
- LD50 value (dose lethal to 50% of the population) [1]: at least 2 g/kg

Compound: gentamicin [GM]
- autophagosomes having a double membrane in auditory outer and inner hair cells [2]: increase in autophagosomes
- number of autophagosomes [3]: increased over time
- HEI-OC1 cells undergone apoptosis ([4]; 5 mM of GM for 48 hours): about 25%

Compound: CCN(CC)CCCC(C)Nc1ccnc2cc(Cl)ccc12 (centres unmarked) [CQ, chloroquine]
- apoptosis with GM and autophagy inhibitor ([4]; 5 mM GM with 25 μM CQ): more likely to be undergone the apoptosis
